In PubChem BioAssay (NCI):
Several values for one entry are separate records, joined by “and”; a condition that tells them apart may be missing. Equal entries are not always repeated.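 Values below derive from 48-hour exposures of cells grown in 96-well plates, with endpoints linearly interpolated between the two concentrations bracketing the appropriate inhibition level. The concentration for 50% growth inhibition is given as GI50. TGI: total growth inhibition.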 Where a SMILES comes first, the peptide text is derived from it. The star is where a group is joined. Cbz = O=C(OCc1ccccc1)*

What was measured:
Assay in all cases: inhibition of tumour cell growth, NCI panel, 48 h
[1] = tested on: HS 578T breast
[2] = tested on: NCI-H23 lung
[3] = tested on: PC-3 prostate
[4] = tested on: OVCAR-3 ovarian
[5] = tested on: T-47D breast
[6] = tested on: SF-295 CNS
[7] = tested on: SW-620 colon
[8] = tested on: SR leukemia
[9] = tested on: KM12 colon
[10] = tested on: M14 melanoma
[11] = tested on: SF-539 CNS

Row | SMILES | TGI [1] | TGI [2] | TGI [3] | TGI [4] | TGI [5] | TGI [6] | TGI [7] [µM] | TGI [8] | TGI [9] | TGI [10] [µM] | TGI [11] [µM] | GI50 [1] [µM] | GI50 [2] [µM] | GI50 [3] [µM] | GI50 [4] [µM] | GI50 [5] [µM] | GI50 [6] [µM] | GI50 [8] [µM] | GI50 [9] [µM]
1 | Cc1ccnc2c1C(=O)C1=C(OC(C)(C)CC1O)C2=O (stereo unspecified) | 15.2 µM | 4.82 µM | 13 µM | 7.18 µM | 19.4 µM | 8.79 µM | 10.4 | 15.4 µM | 15 µM | 9.97 | 10.4 | – | – | – | – | – | – | – | –
2 | COCCn1cnc2c(Cl)nc(Nc3ccccc3)nc21 | 61.6 µM | > 100 µM | 56.4 µM | 34.1 µM | > 100 µM | > 100 µM | > 100 | > 100 µM | > 100 µM | 60.8 | > 100 | – | – | – | – | – | – | – | –
3 | CC(=O)OC(CCC1(C)OC1COc1ccc(CCNC(=O)C=C(C)C)cc1)C(C)(C)OC(C)=O (stereo unspecified) | > 100 µM | > 100 µM | > 100 µM | > 100 µM | > 100 µM | > 100 µM | > 100 | > 74.4 µM | 78.4 µM | > 57.6 | > 100 | – | – | – | – | – | – | – | –
4 | COc1cc2c(cc1O)NC(=O)[C@@H]1CCCN1C2=O | > 100 µM | > 100 µM | > 100 µM | > 100 µM | > 100 µM | > 100 µM | > 100 | > 100 µM | > 100 µM | > 100 | > 100 | – | – | – | – | – | – | – | –
5 | O=P1(Cc2ccccc2)N(Cc2ccccc2)[C@@H]2CCCC[C@H]2N1Cc1ccccc1 | 26.5 µM | 23.2 µM | 15.3 µM | 20.9 µM | 24.3 µM | 21.1 µM | 30.1 | 8.06 µM | 22.4 µM | 16.6 | 33.8 | – | – | – | – | – | – | – | –
6 | CC(=O)c1ccc2c(c1)C(=O)c1sc(C(C)=O)cc1C2=O | 50 µM and 7.03 µM | 2.6 µM and 5.35 µM | 7.12 µM and 11.3 µM | 2.36 µM and 1.85 µM | 3.01 µM and 4.31 µM | 1.84 µM and 3 µM | 50 | 50 µM and > 100 µM | 2.34 µM and 1.48 µM | 2.21 | 1.86 | 2.21 | 0.607 | 2.55 | 0.329 | 1.73 | 1.56 | 0.0247 | 0.313
7 | O=C1CC(=O)NC(=NN2C(=O)/C(=C/c3ccc(Cl)c(Cl)c3)N=C2c2ccccc2)N1 | 50.9 µM | > 100 µM | 72.7 µM | 49.4 µM | > 100 µM | > 100 µM | > 100 | 36.3 µM | 40.1 µM | 83.5 | 39.6 | – | – | – | – | – | – | – | –
8 | CCOC(=O)C(NC(=O)c1ccccc1)(N1CCN(c2cc3c(cc2F)c(=O)c(C(=O)O)cn3C2CC2)CC1)C(F)(F)F (stereo unspecified) | 66.3 µM | 32.9 µM | 60.2 µM | 48.6 µM | 46.1 µM | 87.9 µM | 51.1 | 45.2 µM | 31.7 µM | 40.7 | 30.9 | – | – | – | – | – | – | – | –
9 | O=c1[nH]c2nc3ccccc3c(=O)n2/c1=C/c1cccs1 | > 100 µM | > 100 µM | > 100 µM | > 100 µM | > 100 µM | > 100 µM | > 100 | > 100 µM | > 100 µM | > 100 | > 100 | – | – | – | – | – | – | – | –
10 | CC1(C)O[C@H]2OC(CO)C(N=[N+]=[N-])[C@H]2O1 (stereo partly specified) | > 100 µM | > 100 µM | > 100 µM | > 100 µM | > 100 µM | > 100 µM | > 100 | > 100 µM | > 100 µM | > 100 | > 100 | – | – | – | – | – | – | – | –
11 | Oc1c(Br)ccc2cccnc12 | 72.5 µM | 7.28 µM | > 100 µM | > 23.3 µM | 21.1 µM | 14.9 µM | > 45.6 | > 27.7 µM | > 100 µM | > 32.5 | > 50.6 | – | – | – | – | – | – | – | –
12 | O=C1/C(=C\c2cccc(Oc3ccccc3)c2)S(=O)(=O)C(c2ccccc2)N1c1cccc(Cl)c1 (stereo unspecified) | > 100 µM | > 100 µM | > 100 µM | > 100 µM | > 100 µM | > 100 µM | 69 | > 100 µM | > 100 µM | > 100 | > 100 | – | – | – | – | – | – | – | –
13 | CCOC(=O)CCC(NC(=O)OCc1ccccc1)C(=O)NC(CCC(=O)OCC)C(=O)OCC (stereo unspecified) (Cbz-Glu(OEt)-Glu(OEt)-OEt; configuration not given here) | > 100 µM | > 100 µM | > 100 µM | > 100 µM | > 100 µM | > 100 µM | > 100 | > 100 µM | > 100 µM | > 100 | > 100 | – | – | – | – | – | – | – | –
14 | CCCCCCCCCCCC(=O)OC[C@@H](C[As](=O)(O)O)OC(=O)CCCCCCCCCCC | 29.4 µM | 17.8 µM | 8.14 µM | 16.5 µM | 37.7 µM | 27.1 µM | 29.1 | 57.2 µM | 17.1 µM | 8.47 | 27.8 | – | – | – | – | – | – | – | –
15 | OC(C/C=N/N=C/CC(O)(C(F)(F)Cl)C(F)(F)Cl)(C(F)(F)Cl)C(F)(F)Cl | > 10 µM | > 10 µM | > 10 µM | > 10 µM | > 10 µM | > 10 µM | > 10 | > 10 µM | > 10 µM | > 10 | > 10 | – | – | – | – | – | – | – | –
16 | NCCCNCCCCN1CCOC1=O | > 100 µM | > 100 µM | > 100 µM | > 100 µM | > 100 µM | > 100 µM | > 100 | > 100 µM | > 100 µM | > 100 | > 100 | – | – | – | – | – | – | – | –
17 | NCCCN(CCCN)CCc1cn(C(=O)c2ccccc2)cn1 | 86.5 µM | 36.7 µM | 21.5 µM | 7.75 µM | 16.8 µM | 30.7 µM | 38.2 | 13.9 µM | 22.2 µM | 18.1 | 35.3 | – | – | – | – | – | – | – | –
18 | COc1cccc(CC(=O)N2CCN(CCCc3ccccc3)CC2)c1 | > 100 µM | > 100 µM | > 100 µM | > 100 µM | 89.9 µM | > 100 µM | > 100 | > 100 µM | > 100 µM | > 100 | > 100 | – | – | – | – | – | – | – | –
